# Values quoted from earlier work, collected in patent US20220361717A1, “Anti-Pathogenic Hand Sanitization Station” (priority 2021, published 2022).
# “Also recorded” adds a separate entry of the source.
# Experiments:
# [1] = system: Bacteria: S. aureus; E. coli; details: value = inhibited species
# [2] = system: Bacteria: E. coli; S. aureus; S. typhimurium
# [3] = system: Bacteria: Gram-positive; Gram-negative; details: copolymerization of antimicrobial monomer and styrene; effect on the potency of the monomer
# [4] = system: Bacteria: Gram-postive bacteria; details: homopolymer versus model compound p-ethylbenzyl tetramethylene sulforium tetrafluoroborate
# [5] = system: Bacteria: S. Aureus; P. aeruginosa; E. coli
# Bacteria: E-coli = details: value = inhibited species
# [6] = system: Bacteria: Pseudomonas aeruginosa; Staphylococccus
structure (smiles),measurement,setting,value
C=C(C)C(=O)OCCOC(=O)C(C)CC1(CCCCCCCC)CCC(CCCCCCCC)(CC(C)C(=O)OCCOC(=O)C(=C)C)CC1 (stereo not shown),Inhibited Microbial Species,[1],Bacteria: S. aureus;; also recorded: E. coli
C=CC(=O)Oc1ccc(Cl)c2cccnc12,Comparison of Polymers with Monomer,[2]; homopolymer and copolymers with acrylamide versus the monomer,less effective than
same,Inhibited Microbial Species,[2]; value = inhibited species,S. aureus;; also recorded: S. typhimurium
C=CC(=O)Nc1cccc(C)c1,Comparison of Polymers with Monomer,[3],styrene decreases
C=Cc1ccc(C[S+]2CCCC2)cc1,Comparison of Polymers with Monomer,[4],is more effective
C=C(C)C(=O)OCC(O)CSc1nnc(C)s1 (stereo not shown),Comparison of Polymers with Monomer,[5]; homopolymer effectiveness versus the monomer,more
same,Inhibited Microbial Species,[5]; value = inhibited species,Bacteria: S. Aureus;; also recorded: P. aeruginosa;; also recorded: E. coli;
C=CC(=O)N1C(C)(C)NC(=O)C1(C)C,Inhibited Microbial Species,Bacteria: E-coli,Bacteria: E-coli
C=CC(=O)Oc1cc(Cl)ccc1Oc1ccc(Cl)cc1Cl,Comparison of Polymers with Monomer,"[6]; homopolymer and copolymers with methyl methacrylate, styrene versus the monomer",less effective
same,Inhibited Microbial Species,"[6]; value = inhibited species, 'Pseudomonas aeruginosa' wrapped over cells",Staphylococccus
